Consider 24 molecules from US20250092051A1, “NLRP3 MODULATORS AND USE THEREOF” (Bioentropy Inc., priority 2023, published 2025).

In test [1] the target is T1, NLRP3 (Homo sapiens, UniProt Q96P20).
T1 construct: host or cells: THP-1 cells, PMA-differentiated, LPS-primed, nigericin-stimulated
Kind of test: THP-1 pyroptosis assay (caspase-1 p20 in supernatant by Western blot). The test is classed as cell-based. Particulars: PMA-differentiated THP-1, LPS 50 ng/ml 4 h, compound 30 min, nigericin 15 μM 45 min; caspase-1 p20 Western blot. As to the method: (§1) THP-1 cell lines (procell, #CL-0233) were cultured in RPMI-1640 medium (Gibco, #C11875500BT) supplemented with 10% FBS, 100 U/ml penicillin, 100 µg/ml streptomycin and 0.05 mM β-mercaptoethanol (BME). THP-1 cells were seeded at 5×10^5/ml in 12 well plates and were differentiated into macrophages by incubation with 5 ng/ml PMA (Sigma, #P8139-1MG) for 48 h. Cells were washed with PBS and then were primed with 50 ng/ml LPS (InvivoGen, #tlrl-b5lps) for 4 h. Medium were removed and replaced with serum free medium (SFM) containing compound (2.5-40 nM) or MCC950 (5-25 nM) for 30 min. Cells were then stimulated with 15 μM nigericin (Invivogen, #tlrl-nig) for 45 min.
The protein of supernatants was concentrated using StrataClean™ resin (Agilent, #400714) according to the manufacturer's instructions. The protein samples were resolved on 4-20% SDS-PAGE gels and transferred onto 0.45 PVDF membrane (Immobilon-P #IPVH00010) using a wet transfer system. Membranes were blocked in 5% (w/v) dried milk in PBST for 1 h at room temperature. Membranes were incubated with primary antibody (Adipogen, #AG-20B-0048B-C100) diluted in Primary Antibody Dilution Buffer (Beyotime, #P0023A-100 ml) according to the manufacturer's instructions, followed by incubation with the IgG(H+L) (HRP-labeled Goat Anti-Mouse IgG(H+L) (Beyotime, #A0216) diluted in 1% (w/v) dried milk in PBST for 1 h. The protein expression was visualized using Super ECL Detection Reagent (YEASEN,
FIG. 1. Results of Western blots for THP-1 cell-based pyroptosis assay using the cleavage of caspase-1 into p20 as reporting indication of NLRP3 inhibition. […] Molecule N-027 (Compound #51) and N-027B (Compound #53) inhibits NLRP3 inflammasome activation in macrophages, N-027 IC50 (caspase-1)<5 nM; N-027B IC50 (caspase-1) 1 nM. THP-1 cells were primed for 4 h with LPS (50 ng/ml), and then LPS-primed THP-1 cells were incubated with N-027 or N-027B for 30 min and then stimulated with nigericin (15 μM) for 45 min. Caspase-1 (p20) in supernatants were measured by Western blots.

For test [2], the target named is T1, NLRP3. Kind of test: IL-1β assay (ELISA of THP-1 culture supernatant). Particulars: PMA-differentiated THP-1, LPS 50 ng/ml 4 h, compound 30 min, nigericin 15 μM 45 min; Human IL-1β ELISA. The test is classed as cell-based. As to the method: as §1
The culture supernatant of THP-1 was removed and analyzed using Human IL-1β ELISA Kit according to the manufacturer's instructions (Beyotime, #PI305). The IL-1β concentration was measured at 450 nm wavelength of absorbance and calculated.

Structures are written as SMILES. Where only a bound is given, the exact number is not on record here.

T1 sequence (Q96P20 whole entry): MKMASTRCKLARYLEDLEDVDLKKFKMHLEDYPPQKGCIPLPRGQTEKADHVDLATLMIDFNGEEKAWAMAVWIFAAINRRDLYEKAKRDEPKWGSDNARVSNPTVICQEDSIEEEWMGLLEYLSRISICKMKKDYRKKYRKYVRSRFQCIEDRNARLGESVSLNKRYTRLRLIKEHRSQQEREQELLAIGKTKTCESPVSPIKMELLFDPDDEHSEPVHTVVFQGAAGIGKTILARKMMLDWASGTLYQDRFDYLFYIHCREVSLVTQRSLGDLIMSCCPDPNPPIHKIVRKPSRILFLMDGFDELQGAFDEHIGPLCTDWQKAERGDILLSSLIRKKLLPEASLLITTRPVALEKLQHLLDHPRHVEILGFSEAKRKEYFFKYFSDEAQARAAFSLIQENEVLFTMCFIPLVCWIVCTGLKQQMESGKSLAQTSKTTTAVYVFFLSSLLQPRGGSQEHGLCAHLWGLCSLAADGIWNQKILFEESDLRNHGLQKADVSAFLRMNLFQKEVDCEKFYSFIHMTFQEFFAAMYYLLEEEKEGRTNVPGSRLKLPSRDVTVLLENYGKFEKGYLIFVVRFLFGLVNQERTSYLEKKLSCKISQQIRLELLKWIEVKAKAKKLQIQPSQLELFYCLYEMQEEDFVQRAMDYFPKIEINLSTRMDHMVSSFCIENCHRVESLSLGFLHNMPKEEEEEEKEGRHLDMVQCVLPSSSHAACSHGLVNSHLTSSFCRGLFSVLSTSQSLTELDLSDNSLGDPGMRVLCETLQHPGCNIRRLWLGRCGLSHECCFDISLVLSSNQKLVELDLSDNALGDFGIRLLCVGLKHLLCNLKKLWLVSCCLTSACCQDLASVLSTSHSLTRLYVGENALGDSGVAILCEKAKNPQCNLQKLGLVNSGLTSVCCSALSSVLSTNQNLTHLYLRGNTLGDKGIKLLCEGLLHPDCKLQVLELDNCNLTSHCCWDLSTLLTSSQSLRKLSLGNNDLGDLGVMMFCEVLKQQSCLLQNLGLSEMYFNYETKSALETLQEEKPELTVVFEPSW

Take `Cc1cc(Br)cc(C)c1-n1nc2nc(N3CCOCC3)[nH]c(=O)c2n1` [Compound 1, 2-(4-bromo-2,6-dimethylphenyl)-5-morpholino-2,6-dihydro-7H-[1,2,3]triazolo[4,5-d]pyrimidin-7-one]: the IC50 is < 0.0025 µM in test [1] and < 0.02 µM in test [2].
For `Cc1cc(Br)cc(C)c1-n1nc2nc(N3CCOCC3)[nH]c(=S)c2n1` [Compound 2, 2-(4-bromo-2,6-dimethylphenyl)-5-morpholino-2,6-dihydro-7H-[1,2,3]triazolo[4,5-d]pyrimidine-7-thione], the IC50 in test [1] and in test [2] was < 1.6 µM throughout.
With `Cc1cc(C2CC2)cc(C)c1-n1nc2nc(N3CCOCC3)[nH]c(=O)c2n1` [Compound 3, 2-(4-cyclopropyl-2,6-dimethylphenyl)-5-morpholino-2,6-dihydro-7H-[1,2,3]triazolo[4,5-d]pyrimidin-7-one], the IC50 is < 0.005 µM in test [1] and < 0.015 µM in test [2].
For `Cc1cc(C2CC2)cc(C)c1-n1nc2nc(N3CCOCC3)[nH]c(=S)c2n1` [Compound 4, 2-(4-cyclopropyl-2,6-dimethylphenyl)-5-morpholino-2,6-dihydro-7H-[1,2,3]triazolo[4,5-d]pyrimidine-7-thione], in that order: > 1 µM and > 1 µM.
For `Cc1cc(Br)cc(C)c1-n1nc2nc(N3CCCC3)[nH]c(=O)c2n1` [Compound 51, 2-(4-bromo-2,6-dimethylphenyl)-5-(pyrrolidin-1-yl)-2,6-dihydro-7H-[1,2,3]triazolo[4,5-d]pyrimidin-7-one], the IC50 in test [1] and in test [2] was < 0.005 µM in each case.
For `Cc1cc(Br)cc(C)c1-n1nc2nc(N3CCCC3)[nH]c(=S)c2n1` [Compound 52, 2-(4-bromo-2,6-dimethylphenyl)-5-(pyrrolidin-1-yl)-2,6-dihydro-7H-[1,2,3]triazolo[4,5-d]pyrimidine-7-thione], the IC50 in test [1] is < 0.05 µM; in test [2] it was < 0.5 µM.
For the molecule `Cc1cc(C2CC2)cc(C)c1-n1nc2nc(N3CCCC3)[nH]c(=O)c2n1` [Compound 53, 2-(4-cyclopropyl-2,6-dimethylphenyl)-5-(pyrrolidin-1-yl)-2,6-dihydro-7H-[1,2,3]triazolo[4,5-d]pyrimidin-7-one], the IC50 in test [1] was ≤ 0.001 µM; in test [2], < 0.005 µM.
On to `Cc1cc(C2CC2)cc(C)c1-n1nc2nc(N3CCCC3)[nH]c(=S)c2n1` [Compound 54, 2-(4-cyclopropyl-2,6-dimethylphenyl)-5-(pyrrolidin-1-yl)-2,6-dihydro-7H-[1,2,3]triazolo[4,5-d]pyrimidine-7-thione], for which the IC50 in test [1] and in test [2] was < 0.1 µM in each case.
As for `Cc1cc(Cl)cc(C)c1-n1nc2nc(N3CCCC3)[nH]c(=O)c2n1` [Compound 63, 2-(4-chloro-2,6-dimethylphenyl)-5-(pyrrolidin-1-yl)-2,6-dihydro-7H-[1,2,3]triazolo[4,5-d]pyrimidin-7-one], the IC50 in test [1] was 0.01 µM.
As for `O=c1[nH]c(N2CCCC2)nc2nn(-c3ccc(Br)cc3C(F)(F)F)nc12` [Compound 75, 2-(4-bromo-2-(trifluoromethyl)phenyl)-5-(pyrrolidin-1-yl)-2,6-dihydro-7H-[1,2,3]triazolo[4,5-d]pyrimidin-7-one], the IC50 in test [1] is 0.0025 µM; in test [2], < 0.01 µM.
In the same order, the values of `O=c1[nH]c(N2CCCC2)nc2nn(-c3ccc(C4CC4)cc3C(F)(F)F)nc12` [Compound 77, 2-(4-cyclopropyl-2-(trifluoromethyl)phenyl)-5-(pyrrolidin-1-yl)-2,6-dihydro-7H-[1,2,3]triazolo[4,5-d]pyrimidin-7-one] are < 0.01 µM and < 0.01 µM.
Take `O=c1[nH]c(N2CCCC2)nc2nn(-c3c(Cl)cc(Br)cc3Cl)nc12` [Compound 91, 2-(4-bromo-2,6-dichlorophenyl)-5-(pyrrolidin-1-yl)-2,6-dihydro-7H-[1,2,3]triazolo[4,5-d]pyrimidin-7-one]: the values for the IC50 in test [1] and in test [2] were 0.0075 µM and < 0.015 µM, respectively.
For `CCN(CC)c1nc2nn(-c3c(C)cc(Br)cc3C)nc2c(=O)[nH]1` [Compound 95, 2-(4-bromo-2,6-dimethylphenyl)-5-(diethylamino)-2,6-dihydro-7H-[1,2,3]triazolo[4,5-d]pyrimidin-7-one], the IC50 in test [1] and in test [2] was < 0.0062 µM in each case.
Regarding `O=c1[nH]c(N2CCCC2)nc2nn(-c3ccc(Br)cc3Cl)nc12` [Compound 97, 2-(4-bromo-2-chlorophenyl)-5-(pyrrolidin-1-yl)-2,6-dihydro-7H-[1,2,3]triazolo[4,5-d]pyrimidin-7-one], the figures for the IC50 in test [1] and in test [2] were 0.005 µM and < 0.02 µM, respectively.
With `O=c1[nH]c(N2CCCC2)nc2nn(-c3c(F)cc(Br)cc3Cl)nc12` [Compound 98, 2-(4-bromo-2-chloro-6-fluorophenyl)-5-(pyrrolidin-1-yl)-2,6-dihydro-7H-[1,2,3]triazolo[4,5-d]pyrimidin-7-one], the IC50 in test [1] is 0.0075 µM; in test [2], < 0.015 µM.
Regarding `O=c1[nH]c(N2CCCC2)nc2nn(-c3c(F)cc(Br)cc3F)nc12` [Compound 99, 2-(4-bromo-2,6-difluorophenyl)-5-(pyrrolidin-1-yl)-2,6-dihydro-7H-[1,2,3]triazolo[4,5-d]pyrimidin-7-one], the IC50 in test [1] is < 0.01 µM; in test [2] it was < 0.02 µM.
For `CCN1CCN(c2nc3nn(-c4ccc(C5CC5)cc4C(F)(F)F)nc3c(=O)[nH]2)CC1` [Compound 100, 2-(4-cyclopropyl-2-(trifluoromethyl)phenyl)-5-(4-ethylpiperazin-1-yl)-2,6-dihydro-7H-[1,2,3]triazolo[4,5-d]pyrimidin-7-one], in that order: < 0.1 µM and < 0.2 µM.
In the same order, the values of `Cc1cc(C2CC2)cc(C)c1-n1nc2nc(N(C)CCN(C)C)[nH]c(=O)c2n1` [Compound 101, 2-(4-cyclopropyl-2,6-dimethylphenyl)-5-((2-(dimethylamino)ethyl)(methyl)amino)-2,6-dihydro-7H-[1,2,3]triazolo[4,5-d]pyrimidin-7-one] are < 0.01 µM and < 0.1 µM.
Regarding `CCN1CCN(c2nc3nn(-c4c(C)cc(C5CC5)cc4C)nc3c(=O)[nH]2)CC1` [Compound 102, 2-(4-cyclopropyl-2,6-dimethylphenyl)-5-(4-ethylpiperazin-1-yl)-2,6-dihydro-7H-[1,2,3]triazolo[4,5-d]pyrimidin-7-one], the IC50 in test [1] is < 0.04 µM; in test [2], > 0.1 µM.
Turning to `O=c1[nH]c(N2CCOCC2)nc2nn(-c3c(F)cc(C4CC4)cc3Cl)nc12` [Compound 103, 2-(2-chloro-4-cyclopropyl-6-fluorophenyl)-5-morpholino-2,6-dihydro-7H-[1,2,3]triazolo[4,5-d]pyrimidin-7-one], the IC50 in test [1] and in test [2] was < 0.01 µM throughout.
In the case of `Cc1cc(C2CC2)cc(F)c1-n1nc2nc(N3CCOCC3)[nH]c(=O)c2n1` [Compound 104, 2-(4-cyclopropyl-2-fluoro-6-methylphenyl)-5-morpholino-2,6-dihydro-7H-[1,2,3]triazolo[4,5-d]pyrimidin-7-one], the IC50 in test [1] was < 0.006 µM; in test [2], < 0.01 µM.
Turning to `Cc1cc(C2CC2)cc(C)c1-n1nc2nc(N3CCOC[C@H]3C)[nH]c(=O)c2n1` [Compound 107, (R)-2-(4-cyclopropyl-2,6-dimethylphenyl)-5-(3-methylmorpholino)-2H-[1,2,3]triazolo[4,5-d]pyrimidin-7(6H)-one], the IC50 in test [2] was < 0.033 µM.
The same measure, in the same setting: in the case of `Cc1cc(C2CC2)cc(C)c1-n1nc2nc(N3CCOCC3)n(C)c(=O)c2n1` [Compound 108, 2-(4-cyclopropyl-2,6-dimethyl-phenyl)-6-methyl-5-morpholino-triazolo[4,5-d]pyrimidin-7-one] it was < 0.5 µM; in that of `COc1nc(N2CCOCC2)nc2nn(-c3c(C)cc(C4CC4)cc3C)nc12` [Compound 109, 4-[2-(4-cyclopropyl-2,6-dimethyl-phenyl)-7-methoxy-triazolo[4,5-d]pyrimidin-5-yl]morpholine], > 10 µM.
